{
  "source": "paper PMC3334918",
  "about": "“Mutagenesis and Functional Studies with Succinate Dehydrogenase Inhibitors in the Wheat Pathogen Mycosphaerella graminicola” (PLoS ONE, 2012)",
  "key": {"[1]": {"test_system": "M. graminicola WT (IPO323)", "assay": "microbe, parasite or virus in culture", "assay_type": "cell-based, Mycosphaerella graminicola", "procedure": "(§1) To explore the sensitivity profiles conferred by amino acid substitutions at the cellular and mitochondrial level, we determined sensitivity towards 4 different compounds for 26 of the identified substitution types both in vivo using liquid culture growth (AE media) and in vitro using purified mitochondria and the succinate: Q0/DCPIP activity test (Table 3). […] Resistance factors (RF) were determined as the ratio IC50mutant/IC50WT. […] Qp site mutations are well known to influence SDH enzyme activity and stability upon catalysis, [13], [38], [41].\n(§2) Conidial cells were collected from 4 day old V8 agar plates (cultured at 18°C in the dark) using liquid AE and a cell spreader. Cell density was determined and cells re-suspended to a concentration of 5×10^5 cells ml^−1 in AE media. Sterile 96 wells microtiter plates with lids (Costar) were inoculated with 198 µl of this cell suspension (10^5 cells per well) and 2 µl of inhibitor (100× in DMSO). Final inhibitor concentrations were between 0.95 nM and 1 mM with uniform 4× dilution factor steps (11 inhibitor concentrations+1 DMSO control). Plates were incubated for 6 days at 19°C in the dark before cells were re-suspended and measured for growth (OD600 nm). IC50 values were determined by non linear curve fitting on the basis of measured OD values versus log inhibitor concentrations (GraphPad Prism 5.0 software)."}, "[2]": {"test_system": "wild type IPO323 M. graminicola strain", "assay_type": "cell-based, Mycosphaerella graminicola", "details": "minimal concentration to fully inhibit growth of WT IPO323, AE agar, 10^7 cells, 2 weeks at 20°C in the dark", "text": "Selection plates were produced after adding 1% of a 100× DMSO solution of the active ingredients to pre-melted AE-agar."}, "[3]": {"test_system": "SDH B_H267Y (strain Cbx28)", "assay": "in vitro succinate: Q0/DCPIP activity test, purified mitochondria", "assay_type": "biochemical, Mycosphaerella graminicola", "details": "ratio IC50mutant/IC50WT, single determination", "procedure": "as §1\n(§3) Strains were grown in 1 liter TSM40 units. Cultures were inoculated at 0.05 OD600 nm and grown on a reciprocal shaker (110 rpm, 22°C) for 5 days. Cells were harvested by vacuum filtration and disrupted in liquid nitrogen using a mortar and pestle. Resultant powder was re-suspended to 10% w/v in mitochondrial extraction buffer (10 mM KHPO4 pH7.2; 10 mM KCl, 10 mM MgCl2, 0.5 M sucrose, 0.2 mM EDTA, 2 mM PMSF). Extract was clarified by centrifugation (5,000 g, 4°C for 10 minutes, 2 times), intact mitochondria were then pelleted at 10,000 g for 20 minutes at 4°C. […] This volume was transferred to conical 1.5 ml tubes and re-centrifuged, 10,000 g for 10 minutes at 4°C. […] Mitochondrial suspensions were brought to a final concentration of 10 mg ml^−1 in extraction buffer and stored at −80°C until used.\n(§4) Mitochondrial suspensions were incubated at 30°C for 30 minutes in extraction buffer supplemented with 10 mM succinate prior to enzymatic measurements.\n(§5) A reaction plate was equilibrated for 10 minutes at 30°C before starting the reaction. DCPIP reduction was conducted at 30°C and monitored at 595 nm using a HTS7000 microtiterplate reader (Perkin Elmer). For calculations a molecular extinction coefficient of ε = 17 mM^−1 cm^−1 was used.\n(§6) Inhibitor concentrations ranged between 1 mM and 0.95 nM with uniform 4× dilution factor steps (11 inhibitor concentrations+DMSO control). 96 wells plates were pre equilibrated at reaction temperature (30°C) for 10 minutes before the reactions were started by the addition of 5 µl preactivated M. graminicola mitochondrial suspension. Calculated absorbance slopes (OD/hour) were used for IC50 calculations using Graphpad Prism 5.0 software non linear curve fitting against log inhibitor concentrations."}, "[4]": {"test_system": "SDH B_N225H (strain Cbx106)", "assay": "in vitro succinate: Q0/DCPIP activity test, purified mitochondria", "assay_type": "biochemical, Mycosphaerella graminicola", "details": "ratio IC50mutant/IC50WT, single determination", "procedure": "as §1, §3, §4, §5, §6"}, "[5]": {"test_system": "SDH C_H152R (strain Izm1)", "assay": "in vitro succinate: Q0/DCPIP activity test, purified mitochondria", "assay_type": "biochemical, Mycosphaerella graminicola", "details": "ratio IC50mutant/IC50WT, single determination", "procedure": "as §1, §3, §4, §5, §6"}, "[6]": {"test_system": "SDH B_H267N (strain Cbx96)", "assay": "in vitro succinate: Q0/DCPIP activity test, purified mitochondria", "assay_type": "biochemical, Mycosphaerella graminicola", "details": "ratio IC50mutant/IC50WT, single determination", "procedure": "as §1, §3, §4, §5, §6"}, "[7]": {"test_system": "SDH C_L85P (strain Cbx12)", "assay": "in vitro succinate: Q0/DCPIP activity test, purified mitochondria", "assay_type": "biochemical, Mycosphaerella graminicola", "details": "ratio IC50mutant/IC50WT, single determination", "procedure": "as §1, §3, §4, §5, §6"}, "[8]": {"test_system": "SDH D_D129S (strain Cbx101)", "assay": "in vitro succinate: Q0/DCPIP activity test, purified mitochondria", "assay_type": "biochemical, Mycosphaerella graminicola", "details": "ratio IC50mutant/IC50WT, single determination", "procedure": "as §1, §3, §4, §5, §6"}, "SDH C_A84V (strain Flu4)": {"test_system": "SDH C_A84V (strain Flu4)", "assay": "in vitro succinate: Q0/DCPIP activity test, purified mitochondria", "assay_type": "biochemical, Mycosphaerella graminicola", "details": "ratio IC50mutant/IC50WT, single determination", "procedure": "as §1, §3, §4, §5, §6"}, "[9]": {"test_system": "SDH B_P220T (strain Flu110)", "assay": "in vitro succinate: Q0/DCPIP activity test, purified mitochondria", "assay_type": "biochemical, Mycosphaerella graminicola", "details": "ratio IC50mutant/IC50WT, single determination", "procedure": "as §1, §3, §4, §5, §6"}, "[10]": {"test_system": "SDH B_N225I (strain Flu7)", "assay": "in vitro succinate: Q0/DCPIP activity test, purified mitochondria", "assay_type": "biochemical, Mycosphaerella graminicola", "details": "ratio IC50mutant/IC50WT, single determination", "procedure": "as §1, §3, §4, §5, §6"}, "[11]": {"test_system": "SDH D_D129G (strain Cbx67)", "assay": "in vitro succinate: Q0/DCPIP activity test, purified mitochondria", "assay_type": "biochemical, Mycosphaerella graminicola", "details": "ratio IC50mutant/IC50WT, single determination", "procedure": "as §1, §3, §4, §5, §6"}, "[12]": {"test_system": "SDH B_R265P (strain Cbx56)", "assay": "in vitro succinate: Q0/DCPIP activity test, purified mitochondria", "assay_type": "biochemical, Mycosphaerella graminicola", "details": "ratio IC50mutant/IC50WT, single determination", "procedure": "as §1, §3, §4, §5, §6"}, "[13]": {"test_system": "SDH B_S218F (strain Flu41)", "assay": "in vitro succinate: Q0/DCPIP activity test, purified mitochondria", "assay_type": "biochemical, Mycosphaerella graminicola", "details": "ratio IC50mutant/IC50WT, single determination", "procedure": "as §1, §3, §4, §5, §6"}, "[14]": {"test_system": "SDH D_D129E (strain Cbx22)", "assay": "in vitro succinate: Q0/DCPIP activity test, purified mitochondria", "assay_type": "biochemical, Mycosphaerella graminicola", "details": "ratio IC50mutant/IC50WT, single determination", "procedure": "as §1, §3, §4, §5, §6"}, "SDH C_N86K (strain Izm7)": {"test_system": "SDH C_N86K (strain Izm7)", "assay": "in vitro succinate: Q0/DCPIP activity test, purified mitochondria", "assay_type": "biochemical, Mycosphaerella graminicola", "details": "ratio IC50mutant/IC50WT, single determination", "procedure": "as §1, §3, §4, §5, §6"}, "SDH C_S83G (strain Flu1)": {"test_system": "SDH C_S83G (strain Flu1)", "assay": "in vitro succinate: Q0/DCPIP activity test, purified mitochondria", "assay_type": "biochemical, Mycosphaerella graminicola", "details": "ratio IC50mutant/IC50WT, single determination", "procedure": "as §1, §3, §4, §5, §6"}, "[15]": {"test_system": "M. graminicola strain Cbx1 (SDHB_I269V)", "assay": "in vivo sensitivity, liquid culture growth (AE media)", "assay_type": "cell-based, Mycosphaerella graminicola", "details": "B_I269V, ratio IC50mutant/IC50WT", "procedure": "as §1, §2"}, "[16]": {"test_system": "M. graminicola strain Flu33 (SDHB_N271K)", "assay": "in vivo sensitivity, liquid culture growth (AE media)", "assay_type": "cell-based, Mycosphaerella graminicola", "details": "B_N271K, ratio IC50mutant/IC50WT", "procedure": "as §1, §2"}, "[17]": {"test_system": "M. graminicola strain Flu7 (SDHB_N225I)", "assay": "in vivo sensitivity, liquid culture growth (AE media)", "assay_type": "cell-based, Mycosphaerella graminicola", "details": "B_N225I, ratio IC50mutant/IC50WT", "procedure": "as §1, §2"}, "[18]": {"test_system": "M. graminicola strain Flu9 (SDHC_R87C)", "assay": "in vivo sensitivity, liquid culture growth (AE media)", "assay_type": "cell-based, Mycosphaerella graminicola", "details": "C_R87C, ratio IC50mutant/IC50WT", "procedure": "as §1, §2"}},
  "data": [
    {"smiles": "CC(C)C1C2CCC1c1c(NC(=O)c3cn(C)nc3C(F)F)cccc12", "note": "(stereo not shown) [Isopyrazam]", "values": [
      {"measurement": "Resistance Factors (RFs) in vivo", "setting": "[1]; None, IPO323, ratio IC50mutant/IC50WT", "value": 1},
      {"measurement": "IC50", "setting": "[1]; Zymoseptoria tritici, WT (IPO323), liquid culture growth, ±S.E. (triplicate), read-out: IC50 in vivo", "value": "55 ± 2", "unit": "nM"},
      {"measurement": "Minimal selective concentration (MSC)", "setting": "[2]", "value": "Isopyrazam 3 µM (MSC)"},
      {"measurement": "Resistance Factors (RFs) in vitro", "setting": "[3]", "value": 142.6},
      {"measurement": "Resistance Factors (RFs) in vitro", "setting": "[4]", "value": 15.7},
      {"measurement": "Resistance Factors (RFs) in vitro", "setting": "[5]", "value": 95.0},
      {"measurement": "Resistance Factors (RFs) in vitro", "setting": "[6]", "value": 11.1},
      {"measurement": "Resistance Factors (RFs) in vitro", "setting": "[7]", "value": 35.3},
      {"measurement": "Resistance Factors (RFs) in vitro", "setting": "[8]", "value": 82.5},
      {"measurement": "Resistance Factors (RFs) in vitro", "setting": "SDH C_A84V (strain Flu4)", "value": 3.1},
      {"measurement": "Resistance Factors (RFs) in vitro", "setting": "[9]", "value": 1.8},
      {"measurement": "Resistance Factors (RFs) in vitro", "setting": "[10]", "value": 7.0},
      {"measurement": "Resistance Factors (RFs) in vitro", "setting": "[11]", "value": 583.2},
      {"measurement": "Resistance Factors (RFs) in vitro", "setting": "[12]", "value": 88.3},
      {"measurement": "Resistance Factors (RFs) in vitro", "setting": "[13]", "value": 18.2},
      {"measurement": "Resistance Factors (RFs) in vitro", "setting": "[14]", "value": 145.3},
      {"measurement": "Resistance Factors (RFs) in vitro", "setting": "SDH C_N86K (strain Izm7)", "value": 849.9},
      {"measurement": "Resistance Factors (RFs) in vitro", "setting": "SDH C_S83G (strain Flu1)", "value": 38.6},
      {"measurement": "Resistance Factors (RFs) in vivo", "setting": "[15]", "value": 5.0},
      {"measurement": "Resistance Factors (RFs) in vivo", "setting": "[16]", "value": 5.7},
      {"measurement": "Resistance Factors (RFs) in vivo", "setting": "[17]", "value": 15.0},
      {"measurement": "Resistance Factors (RFs) in vivo", "setting": "[18]", "value": 3.7}
    ]}
  ]
}
